Data as given in publication PMC6892585 (Bioorganic & medicinal chemistry, 2019).

System: Caco-2 cells

Lucifer yellow [LY]
permeability (Papp): ≤ 1 ×10⁻⁶ cm/s
